Legend:
[1] = target: recombinant DNMT3b (Homo sapiens, UniProt Q9UBC3); test: DNMT3b enzyme kinetic (activity) assay, 3H-SAM filter; assay type: biochemical; settings: FIG. 1B, 0-0.0001 M
Protocol: (§1) The enzyme kinetic studies were carried out by Reaction Biology Company. For the DNMT1 activity assay, the substrate solution, 0.001 mg/ml Poly(dI-dC): Poly(dI-dC) in 50 mM Tris-HCl, pH 7.5, 50 mM NaCl, 5 mM EDTA, 5 mM DTT, 1 mM PMSF, 5% glycerol, 0.01% Brij™35, 1% DMSO was used. For the DNMT3a/3b activity assay, 0.0075 mg/ml Lambda DNA in 50 mM Tris-HCl, pH 7.5, 50 mM NaCl, 5 mM EDTA, 5 mM DTT, 1 mM PMSF, 5% glycerol, 1% DMSO, was used. The indicated DNMT1, DNMT3a and DNMT3b were added to the appropriate substrate solution and gently mixed. Amounts of CA ranging from 5.08E-09 to 0.0001 M in DMSO were added to the reaction mixture by using Acoustic Technology (Echo® 550, LabCyte Inc. Sunnyvale, CA). The mixtures were first incubated for 15 min, then ^3H-SAM was added to the reaction mixture to initiate the reaction, and the mixture was incubated for 60 min at 30° C. Following incubation, the reaction mixture was finally transferred to filter-paper for detection of radioactivity counts.

[2] = target: recombinant DNMT3a (Homo sapiens, UniProt Q9Y6K1); test: DNMT3a enzyme kinetic (activity) assay, 3H-SAM filter; assay type: biochemical; settings: FIG. 1B, 0-0.0001 M
Protocol: as §1

[3] = system: Hep G2 cells; assay type: in vitro ADME, human
Text: Mitochondrial oxysterols, including cholestenoic acid (CA), 25-hydroxycholesterol (25HC), and 27-hydroxycholesterol (27HC), are potent regulators involved in important biological events such as lipid metabolism and inflammatory responses. However, their intracellular catabolic pathways have not been fully explored. In this study, we investigated the metabolic pathways of these oxysterols and their roles in the communication between hepatocytes and macrophages.

[4] = target: recombinant DNMT1 (Homo sapiens, UniProt P26358); test: DNMT1 enzyme kinetic (activity) assay, 3H-SAM filter; assay type: biochemical; settings: FIG. 1B, 0-0.0001 M
Protocol: as §1

[5] = system: Human THP-1 macrophages; test: LPS induced inflammatory gene expression in macrophages, real-time RT-PCR; assay type: cell-based; settings: 20 uM CA3S 30 min, then 2 ug/ml LPS 6 hours
Protocol: Human THP-1 were plated in 6 well plates with RPMI 1640 media (10% FBS) and induced to be macrophages by 100 nM PMA for 3 days at 37° C. in a […] incubator. The media was then changed to fresh RPMI 1640 (serum free), the cells were treated with 20 uM CA3S in PG for 30 min, and then the cells were stimulated with 2 ug/ml LPS for 6 hours. Total mRNA was extracted by the Promega SV total RNA isolation system (Promega, Madison, WI, USA) and 1 ug of RNA were converted to cDNA with a Reverse Transcription kit (Qiagen, Hilden, Germany). IL-1A, IL-1B, IL-6, IL-8, COX-2, NFKB and TNFα gene expressions were determined by Real-time RT-PCR that was performed using SYBR Green as the indicator on ABI 7500 Fast Real-Time PCR System (Applied Biosystems, Foster City, CA).

recombinant DNMT1, sequence (P26358 whole entry): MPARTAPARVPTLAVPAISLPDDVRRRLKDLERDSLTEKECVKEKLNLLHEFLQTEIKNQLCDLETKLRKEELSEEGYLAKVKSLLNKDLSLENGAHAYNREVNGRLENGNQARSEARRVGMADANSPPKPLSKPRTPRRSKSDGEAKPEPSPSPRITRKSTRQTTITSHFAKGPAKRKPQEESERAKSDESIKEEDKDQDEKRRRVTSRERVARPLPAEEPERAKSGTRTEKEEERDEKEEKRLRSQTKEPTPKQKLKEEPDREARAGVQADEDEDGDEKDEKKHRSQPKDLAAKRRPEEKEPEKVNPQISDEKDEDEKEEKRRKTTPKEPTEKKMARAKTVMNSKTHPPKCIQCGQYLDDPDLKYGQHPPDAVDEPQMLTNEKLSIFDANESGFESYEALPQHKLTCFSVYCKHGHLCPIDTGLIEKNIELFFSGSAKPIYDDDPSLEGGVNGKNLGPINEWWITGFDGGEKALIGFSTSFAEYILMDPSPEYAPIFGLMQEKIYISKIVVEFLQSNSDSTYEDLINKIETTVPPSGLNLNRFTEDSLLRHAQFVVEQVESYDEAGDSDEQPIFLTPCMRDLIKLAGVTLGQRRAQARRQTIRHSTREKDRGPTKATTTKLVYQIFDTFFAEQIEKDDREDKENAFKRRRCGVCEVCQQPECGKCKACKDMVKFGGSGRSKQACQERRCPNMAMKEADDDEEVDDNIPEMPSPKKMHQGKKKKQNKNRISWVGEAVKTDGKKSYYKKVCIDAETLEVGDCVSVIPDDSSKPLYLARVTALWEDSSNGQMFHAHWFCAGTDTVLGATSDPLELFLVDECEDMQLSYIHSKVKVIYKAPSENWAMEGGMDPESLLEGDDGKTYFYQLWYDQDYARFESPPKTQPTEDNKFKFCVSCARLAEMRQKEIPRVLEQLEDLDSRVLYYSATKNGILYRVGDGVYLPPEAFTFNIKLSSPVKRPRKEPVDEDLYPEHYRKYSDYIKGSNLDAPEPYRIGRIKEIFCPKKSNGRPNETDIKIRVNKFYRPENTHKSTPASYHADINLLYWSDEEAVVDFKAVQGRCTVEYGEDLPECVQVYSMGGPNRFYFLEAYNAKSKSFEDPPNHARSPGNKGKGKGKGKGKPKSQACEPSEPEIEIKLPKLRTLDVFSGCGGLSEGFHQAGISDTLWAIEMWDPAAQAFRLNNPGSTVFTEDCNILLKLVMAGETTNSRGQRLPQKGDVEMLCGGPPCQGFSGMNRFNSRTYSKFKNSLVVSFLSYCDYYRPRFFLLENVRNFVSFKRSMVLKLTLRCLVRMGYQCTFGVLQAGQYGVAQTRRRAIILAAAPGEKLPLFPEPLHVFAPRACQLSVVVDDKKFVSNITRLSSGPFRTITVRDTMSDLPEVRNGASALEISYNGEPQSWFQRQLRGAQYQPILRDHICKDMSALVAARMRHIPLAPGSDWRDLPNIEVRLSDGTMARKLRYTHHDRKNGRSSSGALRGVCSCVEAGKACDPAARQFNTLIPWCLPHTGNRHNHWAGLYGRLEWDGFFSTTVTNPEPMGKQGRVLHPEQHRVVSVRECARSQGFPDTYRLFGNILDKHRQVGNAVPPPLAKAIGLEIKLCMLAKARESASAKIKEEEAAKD
recombinant DNMT3a, sequence (Q9Y6K1 whole entry, looked up): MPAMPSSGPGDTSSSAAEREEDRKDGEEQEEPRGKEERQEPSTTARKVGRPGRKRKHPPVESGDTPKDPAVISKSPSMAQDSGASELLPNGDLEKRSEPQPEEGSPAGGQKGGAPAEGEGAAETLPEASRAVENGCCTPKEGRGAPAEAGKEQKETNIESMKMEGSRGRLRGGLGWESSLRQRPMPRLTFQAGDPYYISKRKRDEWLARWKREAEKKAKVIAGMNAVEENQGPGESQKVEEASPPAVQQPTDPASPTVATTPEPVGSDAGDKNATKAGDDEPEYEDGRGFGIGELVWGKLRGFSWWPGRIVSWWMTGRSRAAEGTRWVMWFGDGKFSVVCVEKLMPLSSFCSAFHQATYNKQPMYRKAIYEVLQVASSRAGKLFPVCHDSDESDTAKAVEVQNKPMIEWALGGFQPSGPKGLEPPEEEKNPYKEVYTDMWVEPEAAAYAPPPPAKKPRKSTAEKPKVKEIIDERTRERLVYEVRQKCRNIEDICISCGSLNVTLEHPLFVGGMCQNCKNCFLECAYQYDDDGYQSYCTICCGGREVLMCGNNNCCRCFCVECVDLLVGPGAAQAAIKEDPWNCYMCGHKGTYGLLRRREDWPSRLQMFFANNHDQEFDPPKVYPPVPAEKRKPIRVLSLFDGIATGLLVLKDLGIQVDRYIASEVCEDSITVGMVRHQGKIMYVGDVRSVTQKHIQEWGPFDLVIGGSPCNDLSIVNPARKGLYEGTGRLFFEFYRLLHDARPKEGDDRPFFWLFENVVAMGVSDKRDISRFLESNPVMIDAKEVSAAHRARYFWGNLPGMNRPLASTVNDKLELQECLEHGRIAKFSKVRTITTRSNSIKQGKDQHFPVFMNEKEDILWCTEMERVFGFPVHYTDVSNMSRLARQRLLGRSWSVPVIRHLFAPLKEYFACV

SMILES | effect on DNMT3b enzymatic activity [1] | effect on DNMT3a enzymatic activity [2] | part of formed 25HC3S released into the media [3] | effect on DNMT1 enzymatic activity [4] | part of the compound converted to 27HC3S [3] | part of the compound converted to CA3S [3] | decrease of COX-2 gene expression [5] [fold] | decrease of IL-6 gene expression [5] [fold]
C[C@H](CCCC(C)(C)O)[C@H]1CC[C@H]2[C@@H]3CC=C4C[C@@H](O)CC[C@]4(C)[C@H]3CC[C@]12C [25HC, 25-hydroxycholesterol] | do not have any effect | do not have any effect | ⅓ | potent activators | – | – | – | –
C[C@@H](CO)CCC[C@@H](C)[C@H]1CC[C@H]2[C@@H]3CC=C4C[C@@H](O)CC[C@]4(C)[C@H]3CC[C@]12C [27HC, 27-hydroxycholesterol] | do not have any effect | do not have any effect | – | potent activators | ⅓ | ⅔ | – | –
CC(CCC[C@@H](C)[C@H]1CCC2[C@@H]3CC=C4CC(OS(=O)(=O)O)CC[C@]4(C)C3CC[C@@]21C)C(=O)O (stereo partly drawn) [CA3S, 3 β-hydroxy-5-cholestenoic acid 3-sulfate] | – | – | – | – | – | – | 5 | 6
